US20240366624A1, “METHODS AND COMPOSITIONS FOR TREATING THROMBOTIC DISEASE” (Washington University, priority 2023, published 2024)

What was measured:
human platelets = assay: Platelet aggregation, human platelets; format: cell-based; details: 3 to 10 μM
Experimental: FIG. 9(A-C) is an exemplary embodiment of EN460 inhibiting thrombin-induced aggregation of mouse and human platelets in accordance with the present disclosure. (A) Human (FIG. 9A), WT (FIG. 9B), and Ero1α-null (FIG. 9C) platelets were pretreated with EN460, an ERO1α inhibitor, at 1, 3, or 10 μM, and treated with 0.025 U/ml thrombin to induce platelet aggregation. The data represent the mean±SD (n=3). P values determined by ANOVA and Dunnett's test (FIG. 9(A-B)) or Student's t-test (FIG. 9C).
FIG. 10(A-E) is an exemplary embodiment of 15E9 not affecting platelet activation and aggregation in accordance with the present disclosure. Mouse platelets were treated with 0.02-0.03 (FIG. 10A P-selectin, FIG. 10B aIIbβ3) or 0.025 U/ml thrombin (FIG. 10C) in the presence of 10 μg/ml mouse IgG2a (IgG2a) or a blocking anti-ERO1α antibody (15E9). Flow cytometry (FIG. 10(A-B)) and aggregation (FIG. 10C) assays were performed. FIG. 10D: Human platelets were treated with 0.025 U/ml thrombin in the presence of mouse IgG2a (mIgG2a) or 10 μg/ml 15E9 and 16B6, followed by measuring aggregation. FIG. 10E: WT and Ero1α null platelets were treated with 10 μg/ml mouse IgG1 (mIgG1) or a blocking anti-PDI antibody (BD34), followed by measuring aggregation induced by 0.025 U/ml thrombin. The data represent the mean±SD (n=3). P values determined by unpaired Student's t-test (vs. mIgG1).

[1] = from studies; cited from earlier work
[2] = target: T1, MAO-A (monoamine oxidase A) (Homo sapiens, UniProt P21397); details: from studies; cited from earlier work
T1 sequence (P21397 1-527): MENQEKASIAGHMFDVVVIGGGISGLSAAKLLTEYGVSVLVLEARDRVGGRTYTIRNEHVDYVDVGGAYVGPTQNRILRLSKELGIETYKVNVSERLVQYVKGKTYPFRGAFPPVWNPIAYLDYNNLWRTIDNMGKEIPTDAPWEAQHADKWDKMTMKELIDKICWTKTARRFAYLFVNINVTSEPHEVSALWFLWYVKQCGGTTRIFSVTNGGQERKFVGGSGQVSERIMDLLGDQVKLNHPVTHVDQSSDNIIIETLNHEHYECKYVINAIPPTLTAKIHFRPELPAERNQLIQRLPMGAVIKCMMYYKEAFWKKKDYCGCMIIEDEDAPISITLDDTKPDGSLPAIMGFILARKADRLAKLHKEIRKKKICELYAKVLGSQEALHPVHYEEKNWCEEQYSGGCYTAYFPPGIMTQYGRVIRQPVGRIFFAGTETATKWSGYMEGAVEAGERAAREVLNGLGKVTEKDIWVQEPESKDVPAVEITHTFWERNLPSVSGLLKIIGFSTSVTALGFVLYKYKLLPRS

MAO-B = target: T2, MAO-B (Homo sapiens, UniProt P27338); details: from studies; cited from earlier work
T2 sequence (P27338 1-520): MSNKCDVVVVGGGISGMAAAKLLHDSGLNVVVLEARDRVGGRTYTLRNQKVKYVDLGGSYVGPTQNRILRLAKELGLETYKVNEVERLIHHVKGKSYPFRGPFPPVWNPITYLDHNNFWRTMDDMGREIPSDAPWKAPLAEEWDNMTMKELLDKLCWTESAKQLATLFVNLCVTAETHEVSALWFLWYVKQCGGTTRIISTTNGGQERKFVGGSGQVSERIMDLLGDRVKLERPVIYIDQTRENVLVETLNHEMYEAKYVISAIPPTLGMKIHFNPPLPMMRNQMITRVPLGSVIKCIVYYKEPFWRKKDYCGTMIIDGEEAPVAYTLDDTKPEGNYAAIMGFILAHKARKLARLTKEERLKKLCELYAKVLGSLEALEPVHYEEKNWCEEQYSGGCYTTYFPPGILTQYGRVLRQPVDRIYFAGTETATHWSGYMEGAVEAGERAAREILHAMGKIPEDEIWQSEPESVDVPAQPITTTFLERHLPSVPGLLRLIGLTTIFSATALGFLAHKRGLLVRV

O=C(O)c1cc(N2N=C(C(F)(F)F)/C(=C/c3ccc(-c4ccccc4)o3)C2=O)ccc1Cl [EN460]
thrombin-induced aggregation (human platelets): abrogated
thiol-reacting activity [1]: has thiol-reacting activity
IC50 [2]: 7.9 µM
IC50 (MAO-B): 30.6 µM
